From patent publication US20240383904A1, “HETEROCYCLIC COMPOUNDS” (Hoffmann-La Roche Inc., priority 2021, published 2024)

The compounds below were run against T1, MAGL (Homo sapiens, UniProt Q99685) (assay: 2-AG assay: MAGL inhibitory activity by hydrolysis of 2-arachidonoylglycerol to arachidonic acid, followed by mass spectrometry). Settings: 15 min preincubation, 30 min reaction at RT, 8 μM 2-arachidonoylglycerol.
T1 sequence (Q99685 1-303): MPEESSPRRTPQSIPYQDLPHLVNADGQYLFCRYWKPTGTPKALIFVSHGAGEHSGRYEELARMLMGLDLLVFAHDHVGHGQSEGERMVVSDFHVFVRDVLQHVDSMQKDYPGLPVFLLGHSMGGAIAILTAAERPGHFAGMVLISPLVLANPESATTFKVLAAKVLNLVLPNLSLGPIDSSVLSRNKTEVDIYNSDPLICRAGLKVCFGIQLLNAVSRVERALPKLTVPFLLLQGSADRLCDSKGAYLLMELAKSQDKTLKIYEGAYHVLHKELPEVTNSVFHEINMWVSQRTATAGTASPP
Type: biochemical

IC50 [nM]	SMILES
120	N=[S@@](=O)(c1ccc(CC2CC3(C2)CN(C(=O)N2CC4(CCCC(=O)N4)C2)C3)cc1)C(F)(F)F (single isomer, unassigned) [Example 284, 2-[6-[[4-(trifluoromethylsulfoni-midoyl)phenyl]methyl]-2-azaspiro[3.3]heptane-2-carbonyl]-2,5-diazaspiro[3.5]nonan-6-one]
2.51	O=C1NC2(CO1)CN(C(=O)N1CC3(C1)CN(S(=O)(=O)c1ccc(F)cc1C(F)(F)F)C3)C2 [Example 195, 2-[2-[4-fluoro-2-(trifluoromethyl)phenyl]sulfonyl-2,6-diazaspiro[3.3]heptane-6-carbonyl]-7-oxa-2,5-diazaspiro[3.4]octan-6-one]
7.31	CS(=O)(=O)c1ccc(CC2CC3(C2)CN(C(=O)N2CC4(COCC(=O)N4)C2)C3)cc1C(F)(F)F [Example 183]
1240	O=C1COCC2(CN(C(=O)N3CC4(CCN(Cc5ccc(C(F)(F)F)nc5)C4)C3)C2)N1 [Example 240, 2-[7-[[6-(trifluoromethyl)-3-pyridyl]methyl]-2,7-diazaspiro[3.4]octane-2-carbonyl]-8-oxa-2,5-diazaspiro[3.5]nonan-6-one]
24.6	O=C1CCC2(CN(C(=O)N3CC4(CC(Cn5cnc(C6(C(F)(F)F)CC6)n5)C4)C3)C2)N1 [Example 330, 2-[6-[[3-[1-(trifluoromethyl)cyclopro-pyl]-1,2,4-triazol-1-yl]methyl]-2-azaspiro[3.3]heptane-2-carbonyl]-2,5-diazaspiro[3.4]octan-6-one]
1.15	O=C1NC2(CO1)CN(C(=O)N1CC3(CC(Cc4cnc(C(F)(F)F)cn4)C3)C1)C2 [Example 5, 2-[6-[[5-(trifluoromethyl)pyrazin-2-y1]methyl]-2-azaspiro[3.3]heptane-2-carbonyl]-7-oxa-2,5-diazaspiro[3.4]octan-6-one]
0.31	O=C1NC2(CO1)CN(C(=O)N1CC3(CC[C@H](Cc4cnc(C(F)(F)F)cn4)C3)C1)C2 [Example 111, 2-[(6S)-6-[[5-(trifluoromethyl)pyrazin-2-yl]methyl]-2-azaspiro[3.4]octane-2-carbonyl]-7-oxa-2,5-diazaspiro[3.4]octan-6-one]
7.62	O=C1NC2(CO1)CN(C(=O)N1CC3(CC(N4CC(CC(F)(F)F)C4)C3)C1)C2 [Example 81, 2-[6-[3-(2,2,2-trifluoroethyl)azetidin-1-y1]-2-azaspiro[3.3]heptane-2-carbonyl]-7-oxa-2,5-diazaspiro[3.4]octan-6-one]
0.62	N=[S@](=O)(c1ccc(CC2CC3(C2)CN(C(=O)N2CC4(CCC(=O)N4)C2)C3)cc1)C(F)(F)F [Example 283, 2-[6-[[4-(trifluoromethylsulfoni-midoyl)phenyl]methyl]-2-azaspiro[3.3]heptane-2-carbonyl]-2,5-diazaspiro[3.4]octan-6-one]
49	O=C1CCC2(CN(C(=O)N3CC4(CC(Oc5nc(C(F)(F)F)cs5)C4)C3)C2)N1 [Example 308, 2-[6-[4-(trifluoromethyl)thiazol-2-yl]oxy-2-azaspiro[3.3]heptane-2-carbonyl]-2,5-diazaspiro[3.4]octan-6-one]
61.4	O=C1NC2(CO1)CN(C(=O)N1CC3(C1)CN(c1ccc(C(F)(F)F)cn1)C3)C2 [Example 202, 2-[6-[5-(trifluoromethyl)-2-pyridyl]-2,6-diazaspiro[3.3]heptane-2-carbonyl]-7-oxa-2,5-diazaspiro[3.4]octan-6-one]
9.86	O=C1NC2(CO1)CN(C(=O)N1CC3(CCN(Cc4cnc(C(F)(F)F)cn4)C3)C1)C2 [Example 157, 2-[7-[[5-(trifluoromethyl)pyrazin-2-yl]methyl]-2,7-diazaspiro[3.4]octane-2-carbonyl]-7-oxa-2,5-diazaspiro[3.4]octan-6-one]
26.9	O=C1CCC2(CN(C(=O)N3CC4(CCN(Cc5cccc(S(=O)(=O)C(F)(F)F)c5)C4)C3)C2)N1 [Example 256, 2-[7-[[3-(trifluoromethylsulfonyl)phenyl]methyl]-2,7-diazaspiro[3.4]octane-2-carbonyl]-2,5-diazaspiro[3.4]octan-6-one]
0.15	O=C1NC2(CO1)CN(C(=O)N1CC3(CCC(Cc4ccc(C(F)(F)F)cn4)C3)C1)C2 (stereo not drawn) [Example 46, 2-[6-[[5-(trifluoromethyl)-2-pyridyl]methyl]-2-azaspiro[3.4]octane-2-carbonyl]-7-oxa-2,5-diazaspiro[3.4]octan-6-one]
1.31	Cn1nc(CC2CC3(C2)CN(C(=O)N2CC4(CCC(=O)N4)C2)C3)cc1C(F)(F)F [Example 166, 2-[6-[[1-methyl-5-(trifluoromethyl)pyrazol-3-yl]methyl]-2-azaspiro[3.3]heptane-2-carbonyl]-2,5-diazaspiro[3.4]octan-6-one]
0.65	O=C1NC2(CO1)CN(C(=O)N1CCC3(CC1)CN(Cc1ccc(C(F)(F)F)cc1F)C3)C2 [Example 92, 2-[2-[2-fluoro-4-(trifluoromethyl)benzyl]-2,7-diazaspiro[3.5]nonane-7-carbonyl]-7-oxa-2,5-diazaspiro[3.4]octan-6-one]
4.33	CS(=O)(=O)c1ccc(Cl)cc1OC1CCC2(CC1)CN(C(=O)N1CC3(COC(=O)N3)C1)C2 [Example 122, 2-[7-(5-chloro-2-mesyl-phenoxy)-2-azaspiro[3.5]nonane-2-carobnyl]-7-oxa-2,5-diazaspiro[3.4]octan-6-one]

IC50 [nM]	SMILES
25.9	O=C1CCC2(CN(C(=O)N3CC4(CC(Cn5cc(C(F)(F)F)ccc5=O)C4)C3)C2)N1 [Example 259, 2-[6-[[2-oxo-5-(trifluoromethyl)-1-pyridyl]methyl]-2-azaspiro[3.3]heptane-2-carbonyl]-2,5-diazaspiro[3.4]octan-6-one]
2.85	O=C1NC2(CO1)CN(C(=O)N1CC3(CCC(Oc4cnc(C(F)(F)F)cn4)C3)C1)C2 (single isomer, unassigned) [Example 104]
437	N=[S@@](=O)(c1ccc(CC2CC3(C2)CN(C(=O)N2CC4(CCCC(=O)N4)C2)C3)cc1)C(F)(F)F (single isomer, unassigned) [Example 287, 2-[6-[[4-(trifluoromethylsulfoni-midoyl)phenyl]methyl]-2-azaspiro[3.3]heptane-2-carbonyl]-2,5-diazaspiro[3.5]nonan-6-one]
9.83	O=C1CCC2(CN(C(=O)N3CC4(CC(Cc5cncc(S(=O)(=O)C(F)(F)F)c5)C4)C3)C2)N1 [Example 252, 2-[6-[[5-(trifluoromethylsulfonyl)-3-pyridyl]methyl]-2-azaspiro[3.3]heptane-2-carbonyl]-2,5-diazaspiro[3.4]octan-6-one]
4.66	O=C1CCC2(CN(C(=O)N3CC4(CCN(Cc5cccc(S(=O)(=O)C(F)(F)F)c5)CC4)C3)C2)N1 [Example 136, 2-[7-(3-triflylbenzyl)-2,7-diazaspiro[3.5]nonane-2-carbonyl]-2,5-diazaspiro[3.4]octan-6-one]
1.27	N=[S@@](=O)(c1cccc(CC2CC3(C2)CN(C(=O)N2CC4(COCC(=O)N4)C2)C3)c1)C(F)(F)F [Example 291, 2-[6-[[3-(trifluoromethylsulfoni-midoyl)phenyl]methyl]-2-azaspiro[3.3]heptane-2-carbonyl]-8-oxa-2,5-diazaspiro[3.5]nonan-6-one]
72.4	N#Cc1ccc(CC2CC3(C2)CN(C(=O)N2CC4(CCCC(=O)N4)C2)C3)cc1C(F)(F)F [Example 270]
6.19	O=C1NC2(CO1)CN(C(=O)N1CC3(CC(N4CC(C(F)(F)F)C4)C3)C1)C2 [Example 80, 2-[6-[3-(trifluoromethyl)azetidin-1-y1]-2-azaspiro[3.3]heptane-2-carbonyl]-7-oxa-2,5-diazaspiro[3.4]octan-6-one]
0.31	O=C1NC2(CO1)CN(C(=O)N1CC3(CC(Cc4ccc(Cl)cn4)C3)C1)C2 [Example 20, 2-[6-[(5-chloro-2-pyridyl)methyl]-2-azaspiro[3.3]heptane-2-carbonyl]-7-oxa-2,5-diazaspiro[3.4]octan-6-one]
15.9	Cc1cc(C(F)(F)F)n(CC2CC3(C2)CN(C(=O)N2CC4(CCC(=O)N4)C2)C3)n1 [Example 328, 2-[6-[[3-methyl-5-(trifluoromethyl)pyrazol-1-yl]methyl]-2-azaspiro[3.3]heptane-2-carbonyl]-2,5-diazaspiro[3.4]octan-6-one]
2.85	O=C1CCC2(CN(C(=O)N3CC4(CC(Cc5ccc(C(F)(F)F)nc5)C4)C3)C2)N1 [Example 3, 2-[6-[[6-(trifluoromethyl)-3-pyridyl]methyl]-2-azaspiro[3.3]heptane-2-carbonyl]-2,5-diazaspiro[3.4]octan-6-one]
1.01	O=C1NC2(CO1)CN(C(=O)N1CC3(CCN(Cc4ccc(C(F)(F)F)cc4F)CC3)C1)C2 [Example 135]
195	O=C1CCC2(CN(C(=O)N3CC4(CC(S(=O)(=O)c5cccc(OC(F)(F)F)c5)C4)C3)C2)N1 [Example 280, 2-[6-[3-(trifluoromethoxy)phenyl]sulfonyl-2-azaspiro[3.3]heptane-2-carbonyl]2,5-diazaspiro[3.4]octan-6-one]
0.44	O=C1NC2(CO1)CN(C(=O)N1CC3(CC(Cn4cc(C(F)(F)F)cn4)C3)C1)C2 [Example 53, 2-[6-[[4-(trifluoromethyl)pyrazol-1-y1]methyl]-2-azaspiro[3.3]heptane-2-carbonyl]-7-oxa-2,5-diazaspiro[3.4]octan-6-one]
13.1	O=C1COCC2(CN(C(=O)N3CC4(CCC(Cc5ccc(OC(F)F)nc5)CC4)C3)C2)N1 [Example 133, 2-[7-[[6-(difluoromethoxy)-3-pyridyl]methyl]-2-azaspiro[3.5]nonane-2-carbonyl]-8-oxa-2,5-diazaspiro[3.5]nonan-6-one]
3.68	O=C1NC2(CO1)CN(C(=O)N1CC3(CC(Oc4cnc(C(F)(F)F)cn4)C3)C1)C2 [Example 70, 2-[6-[5-(trifluoromethyl)pyrazin-2-yl]oxy-2-azaspiro[3.3]heptane-2-carbonyl]-7-oxa-2,5-diazaspiro[3.4]octan-6-one]
